What was measured:
FLT3 ITD, F691L = molecular target: T1, FLT3 ITD, F691L (Homo sapiens, UniProt P36888, F691L, form not given); assay: DiscoverX KINOMEscan competition binding, FLT3 ITD, F691L; details: no ATP
T1 construct: fused on or other part: DNA tag for qPCR read-out (T7 phage fusion, or DNA-tagged kinase made in HEK-293 cells)
T1 sequence (P36888 1-993 F691L): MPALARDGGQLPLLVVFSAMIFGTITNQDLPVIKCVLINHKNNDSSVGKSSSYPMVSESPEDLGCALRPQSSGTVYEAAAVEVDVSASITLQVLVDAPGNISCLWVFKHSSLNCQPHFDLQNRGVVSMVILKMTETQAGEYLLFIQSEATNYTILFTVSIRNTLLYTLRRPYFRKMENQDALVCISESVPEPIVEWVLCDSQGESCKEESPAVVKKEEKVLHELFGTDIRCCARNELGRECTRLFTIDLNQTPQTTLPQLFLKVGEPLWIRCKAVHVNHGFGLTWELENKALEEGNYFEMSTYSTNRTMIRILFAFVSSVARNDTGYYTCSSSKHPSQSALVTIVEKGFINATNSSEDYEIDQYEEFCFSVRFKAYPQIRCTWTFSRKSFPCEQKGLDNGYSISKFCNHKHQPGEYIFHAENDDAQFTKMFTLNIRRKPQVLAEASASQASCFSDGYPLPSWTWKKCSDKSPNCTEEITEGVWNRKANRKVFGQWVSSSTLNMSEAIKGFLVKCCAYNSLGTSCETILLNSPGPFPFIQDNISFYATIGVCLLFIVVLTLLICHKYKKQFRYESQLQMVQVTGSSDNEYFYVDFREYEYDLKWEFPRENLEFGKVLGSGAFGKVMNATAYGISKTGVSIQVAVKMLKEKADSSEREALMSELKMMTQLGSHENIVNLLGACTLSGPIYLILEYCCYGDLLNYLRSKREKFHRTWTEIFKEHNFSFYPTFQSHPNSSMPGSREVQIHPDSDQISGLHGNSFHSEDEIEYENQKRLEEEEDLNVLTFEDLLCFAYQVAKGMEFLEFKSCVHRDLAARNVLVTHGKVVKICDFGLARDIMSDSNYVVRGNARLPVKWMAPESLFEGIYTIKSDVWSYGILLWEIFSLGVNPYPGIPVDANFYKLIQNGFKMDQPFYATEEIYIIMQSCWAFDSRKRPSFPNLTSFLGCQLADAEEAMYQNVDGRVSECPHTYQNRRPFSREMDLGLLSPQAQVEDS
Excerpt: (§1) Kinase binding data were obtained for various exemplary compounds prepared according to Examples 2-15 using the DiscoverX KINOMEscan® active site-directed competition binding site-directed assay protocol described below. […] As a result, the data report thermodynamic interaction affinities (Kd values), rather than IC50 values that are dependent on ATP concentrations. The assay uses a DNA-tagged version of the protein kinase, and an immobilized ligand bound to a solid support. Compounds that directly or indirectly prevent kinase binding to the immobilized ligand reduce the amount of kinase captured on the solid support, which is detected using an ultra-sensitive qPCR method. Affinity constants reported from the assay have been reported to be independent of the immobilized ligand used that is coupled to the solid support (See supplemental information in Fabian, M. A. et. al., (2005) Nat. […] Wodicka, L. […] Biol. 17, 1241-1249.) Kinase-tagged T7 phage strains were prepared in an E. coli host derived from the BL21 strain. E. coli were grown to log-phase and infected with T7 phage and incubated with shaking at 32° C. until lysis. […] Kds were determined using an 11-point 3-fold compound dilution series with three DMSO control points. […] The kinase concentration in the eluates was measured by qPCR. Binding constants (Kds) were calculated with a standard dose-response curve using the Hill equation. […]

FLT3 = molecular target: T2, FLT3 (Homo sapiens, UniProt P36888); assay: DiscoverX KINOMEscan competition binding, FLT3; parameters: purchased RBC (Reaction Biology) HotSpot assay; details: no ATP
T2 sequence (P36888 27-993): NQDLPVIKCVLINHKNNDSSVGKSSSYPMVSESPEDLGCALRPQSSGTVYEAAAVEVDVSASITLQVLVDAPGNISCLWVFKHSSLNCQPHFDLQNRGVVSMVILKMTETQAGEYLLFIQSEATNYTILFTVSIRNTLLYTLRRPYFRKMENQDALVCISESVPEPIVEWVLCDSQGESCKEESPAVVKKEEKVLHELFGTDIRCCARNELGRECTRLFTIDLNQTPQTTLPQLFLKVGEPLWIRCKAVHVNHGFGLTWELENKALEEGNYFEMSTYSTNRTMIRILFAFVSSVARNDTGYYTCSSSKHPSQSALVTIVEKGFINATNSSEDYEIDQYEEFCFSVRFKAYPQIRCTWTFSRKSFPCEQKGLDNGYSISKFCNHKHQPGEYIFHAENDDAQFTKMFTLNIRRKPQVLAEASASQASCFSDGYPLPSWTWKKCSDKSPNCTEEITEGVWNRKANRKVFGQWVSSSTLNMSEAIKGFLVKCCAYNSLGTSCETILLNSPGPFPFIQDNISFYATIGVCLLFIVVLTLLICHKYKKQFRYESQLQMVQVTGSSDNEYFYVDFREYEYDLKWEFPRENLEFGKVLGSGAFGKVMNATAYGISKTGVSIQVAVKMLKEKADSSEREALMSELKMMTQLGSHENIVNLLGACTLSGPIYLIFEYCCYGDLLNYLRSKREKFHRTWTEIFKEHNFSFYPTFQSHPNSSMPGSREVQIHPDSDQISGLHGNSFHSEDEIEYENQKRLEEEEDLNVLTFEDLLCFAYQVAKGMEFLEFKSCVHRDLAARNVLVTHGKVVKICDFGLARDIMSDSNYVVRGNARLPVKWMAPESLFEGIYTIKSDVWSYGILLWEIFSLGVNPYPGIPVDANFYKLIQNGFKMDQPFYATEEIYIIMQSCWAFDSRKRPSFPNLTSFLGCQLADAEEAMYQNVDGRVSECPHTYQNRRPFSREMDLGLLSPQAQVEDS
Excerpt: as §1

**Q.** Which results are given for `COc1cc2ncc(-c3nc(N[C@H]4CNCC[C@@H]4F)c(F)cc3F)n2nc1C1CCC1` [Compound 15a, 6-(6-cyclobutyl-7-methoxyimidazo[1,2-b]pyridazin-3-yl)-3,5-difluoro-N-((3S,4S)-4-fluoropiperidin-3-yl)pyridin-2-amine]?
**A.** Kd (FLT3 ITD, F691L): < 0.17 nM; Kd (FLT3): < 0.17 nM

From patent US20250368648A1, “MULTI-CYCLIC IRAK AND FLT3 INHIBITING COMPOUNDS AND USES THEREOF” (CHILDREN'S HOSPITAL MEDICAL CENTER, priority 2022, published 2025)
